From patent publication US8143290B2, “Chemical compounds 572” (AstraZeneca AB, priority 2006, dated 2012)

Target: T1, recombinant human GR (Homo sapiens, UniProt P04150)
T1 construct: purchased Panvera/Invitrogen P2812 (kit P2893)
T1 sequence (P04150 1-777): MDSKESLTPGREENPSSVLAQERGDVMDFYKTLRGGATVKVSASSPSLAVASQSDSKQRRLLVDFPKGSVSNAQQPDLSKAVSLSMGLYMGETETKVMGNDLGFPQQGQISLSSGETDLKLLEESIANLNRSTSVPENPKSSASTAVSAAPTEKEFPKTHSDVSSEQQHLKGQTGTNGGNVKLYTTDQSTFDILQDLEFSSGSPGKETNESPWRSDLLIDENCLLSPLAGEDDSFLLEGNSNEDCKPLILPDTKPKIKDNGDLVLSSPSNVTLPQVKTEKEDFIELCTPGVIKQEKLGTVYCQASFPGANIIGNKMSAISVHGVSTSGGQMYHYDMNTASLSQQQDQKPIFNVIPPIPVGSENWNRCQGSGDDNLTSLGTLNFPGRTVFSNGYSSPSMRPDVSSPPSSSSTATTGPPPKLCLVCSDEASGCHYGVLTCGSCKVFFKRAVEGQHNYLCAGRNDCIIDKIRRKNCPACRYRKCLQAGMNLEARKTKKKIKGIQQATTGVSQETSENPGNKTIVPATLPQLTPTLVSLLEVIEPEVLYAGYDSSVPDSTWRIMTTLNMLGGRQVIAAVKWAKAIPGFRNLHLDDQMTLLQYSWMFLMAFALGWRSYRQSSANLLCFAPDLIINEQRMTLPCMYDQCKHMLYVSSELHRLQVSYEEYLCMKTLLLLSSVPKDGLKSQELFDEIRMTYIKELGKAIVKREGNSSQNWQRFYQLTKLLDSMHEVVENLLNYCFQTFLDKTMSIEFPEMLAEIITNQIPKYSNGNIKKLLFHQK
Assay: Human Glucocorticoid Receptor (GR) Assay, fluorescence polarization
Type: binding
Conditions: GS Red tracer, incubated 2 h at r.t., XLfit model 205, read-out: GRhuFL_FP_v2 Mean IC50
Protocol: Human Glucocorticoid Receptor (GR) Assay
The assay is based on a commercial kit from Panvera/Invitrogen (Part number P2893). The assay technology is fluorescence polarization. […] The GR and Stabilizing Peptide reagents are stored at −70° C. while the GS Red is stored at −20° C. Also included in the kit are 1M DTT (Panvera, Part number P2325, stored at −20° C.) and GR Screening buffer 10× (Panvera, Part number P2814, stored at −70° C. initially but once thawed stored at r.t.). Avoid repeated freeze/thaws for all reagents. The GR Screening buffer 10× comprises 100 mM potassium phosphate, 200 mM sodium molybdate, 1 mM EDTA and 20% DMSO.
0% control was 100% DMSO and 100% control was […] Dexamethasone. Background solution (8 μL; assay buffer 10×, Stabilizing Peptide, DTT and ice cold MQ water) was added to the background wells. GS Red solution (7 μL; assay buffer 10×, Stabilizing Peptide, DTT, GS Red and ice cold water) was added to all wells except background wells. GR solution (7 μL; assay buffer 10×, Stabilizing Peptide, DTT, GR and ice cold water) was added to all wells. The plate was sealed and incubated in a dark at r.t. for 2 h.

Row | SMILES | IC50 [nM]
1 | COCC(=O)N[C@@H](CO)C(Oc1ccc2c(cnn2-c2ccc(F)cc2)c1)c1cccc(F)c1 (mixture of isomers) [Example 113, N-[(1S)-2-(3-Fluorophenyl)-2-{[1-(4-fluorophenyl)-1H-indazol-5-yl]oxy}-1-(hydroxymethyl)ethyl]-2-methoxyacetamide] | 24
2 | C[C@H](NC(=O)C(F)(F)F)[C@H](COc1ccccc1)Oc1ccc2c(cnn2-c2ccc(F)cc2)c1 (racemic) [Example 70, 2,2,2-Trifluoro-N-[(2RS,3SR)-3-[1-(4-fluorophenyl)indazol-5-yl]oxy-4-phenoxy-butan-2-yl]acetamide] | 89
3 | C[C@H](NC(=O)C(F)(F)F)[C@H](Oc1cc2cnn(-c3ccc(F)cc3)c2cc1Cl)c1ccc(F)cc1 (racemic) [Example 99, N-[(1RS,2SR)-1-[6-chloro-1-(4-fluorophenyl)indazol-5-yl]oxy-1-(4-fluorophenyl)propan-2-yl]-2,2,2-trifluoro-acetamide] | 3.8
4 | CC(=O)NC(C)C(Oc1cc2cnn(-c3ccc(F)cc3)c2cc1Cl)c1ccc(F)cc1 (racemic) [Example 100, N-[(1RS,2SR)-1-[6-chloro-1-(4-fluorophenyl)indazol-5-yl]oxy-1-(4-fluorophenyl)propan-2-yl]acetamide] | 9.2
5 | C[C@H](NC(=O)C(F)(F)F)[C@@H](COc1ccccc1)Oc1ccc2c(cnn2-c2ccc(F)cc2)c1 (single isomer, unassigned) [Example 68, 2,2,2-Trifluoro-N-[(2S*,3S*)-3-[1-(4-fluorophenyl)indazol-5-yl]oxy-4-phenoxy-butan-2-yl]acetamide] | 1.7
6 | C[C@@H](NC(=O)C(F)(F)F)[C@H](COc1ccccc1)Oc1ccc2c(cnn2-c2ccc(F)cc2)c1 (single isomer, unassigned) [Example 69, 2,2,2-trifluoro-N-[2R*,3R*-3-[1-(4-fluorophenyl)indazol-5-yl]oxy-4-phenoxy-butan-2-yl]acetamide] | 76
7 | CC(=O)N[C@@H](C)[C@H](Oc1cc2cnn(-c3ccc(F)cc3)c2cc1Cl)c1ccc(F)cc1 (single isomer, unassigned) [Example 101, N-[(1S*,2R*)-1-[6-chloro-1-(4-fluorophenyl)indazol-5-yl]oxy-1-(4-fluorophenyl)propan-2-yl]acetamide] | 15
8 | CC(=O)N[C@@H](C)[C@H](Oc1cc2cnn(-c3ccc(F)cc3)c2cc1Cl)c1ccc(F)cc1 (single isomer, unassigned) [Example 102, N-[(1R*,2S*)-1-[6-chloro-1-(4-fluorophenyl)indazol-5-yl]oxy-1-(4-fluorophenyl)propan-2-yl]acetamide] | 2.5
9 | CC(C)(C)C(=O)NC(C(Oc1ccc2c(cnn2-c2ccc(F)cc2)c1)c1ccccc1)C(F)(F)F (single isomer, unassigned) [Example 147D1E1, N-(1,1,1-trifluoro-3-(1-(4-fluorophenyl)-1H-indazol-5-yloxy)-3-phenylpropan-2-yl)pivalamide] | 97
10 | CC(C)(C)C(=O)NC(C(Oc1ccc2c(cnn2-c2ccc(F)cc2)c1)c1ccccc1)C(F)(F)F (single isomer, unassigned) [Example 147D1E2, N-(1,1,1-trifluoro-3-(1-(4-fluorophenyl)-1H-indazol-5-yloxy)-3-phenylpropan-2-yl)pivalamide] | 24
11 | CC(C)(C)C(=O)NC(C(Oc1ccc2c(cnn2-c2ccc(F)cc2)c1)c1ccccc1)C(F)(F)F (single isomer, unassigned) [Example 147D2E1, N-(1,1,1-trifluoro-3-(1-(4-fluorophenyl)-1H-indazol-5-yloxy)-3-phenylpropan-2-yl)pivalamide] | 7.4
12 | CC(C)(C)C(=O)NC(C(Oc1ccc2c(cnn2-c2ccc(F)cc2)c1)c1ccccc1)C(F)(F)F (single isomer, unassigned) [Example 147D2E2, N-(1,1,1-trifluoro-3-(1-(4-fluorophenyl)-1H-indazol-5-yloxy)-3-phenylpropan-2-yl)pivalamide] | 12
13 | Cc1cc(C)c([C@@H](Oc2ccc3c(cnn3-c3ccc(F)cc3)c2)[C@H](C)NC(=O)C(C)(C)C)cc1C (stereo in doubt) [Example 267, N-[(1R,2S)-1-[1-(4-fluorophenyl)indazol-5-yl]oxy-1-(2,4,5-trimethylphenyl)propan-2-yl]-2,2-dimethyl-propanamide] | 3.7
14 | COc1ccc(F)cc1[C@@H](Oc1ccc2c(cnn2-c2ccc(F)cc2)c1)[C@H](C)NC(=O)C1(C)CC1 (stereo in doubt) [Example 268, N-[(1R,2S)-1-(5-fluoro-2-methoxy-phenyl)-1-[1-(4-fluorophenyl)indazol-5-yl]oxy-propan-2-yl]-1-methyl-cyclopropane-1-carboxamide] | 3.1
15 | CCC(=O)N[C@@H](C)[C@H](Oc1ccc2c(cnn2-c2ccc(F)cc2)c1)c1ccccc1 [Example 3, N-((1S,2R)-2-{[1-(4-fluorophenyl)-1H-indazol-5-yl]oxy}-1-methyl-2-phenylethyl)propanamide] | 3.2
16 | COC(=O)N[C@@H](C)[C@H](Oc1ccc2c(cnn2-c2ccc(F)cc2)c1)c1ccccc1 [Example 4, Methyl ((1S,2R)-2-{[1-(4-fluorophenyl)-1H-indazol-5-yl]oxy}-1-methyl-2-phenylethyl)carbamate] | 5.9
17 | C[C@H](NC(=O)C(C)(C)O)[C@H](Oc1ccc2c(cnn2-c2ccc(F)cc2)c1)c1ccccc1 [Example 5, N-[(1R,2S)-1-[1-(4-fluorophenyl)indazol-5-yl]oxy-1-phenyl-propan-2-yl]-2-hydroxy-2-methyl-propanamide] | 2.1
18 | COCC(=O)N[C@@H](C)[C@H](Oc1ccc2c(cnn2-c2ccc(F)cc2)c1)c1ccc(SC)cc1 [Example 9, N-[(1R,2S)-1-[1-(4-fluorophenyl)indazol-5-yl]oxy-1-(4-methylsulfanylphenyl)propan-2-yl]-2-methoxy-acetamide] | 2
19 | CSc1ccc([C@@H](Oc2ccc3c(cnn3-c3ccc(F)cc3)c2)[C@H](C)NC(=O)COC(C)=O)cc1 [Example 10, N-[(1R,2S)-1-[1-(4-fluorophenyl)indazol-5-yl]oxy-1-(4-methylsulfanylphenyl)propan-2-yl]carbamoylmethyl acetate] | 2.4
20 | CSc1ccc([C@@H](Oc2ccc3c(cnn3-c3ccc(F)cc3)c2)[C@H](C)NC(=O)CO)cc1 [Example 11, N-[(1R,2S)-1-[1-(4-fluorophenyl)indazol-5-yl]oxy-1-(4-methylsulfanylphenyl)propan-2-yl]-2-hydroxy-acetamide] | 2.1
21 | C[C@H](NC(=O)C(F)(F)F)[C@H](Oc1ccc2c(cnn2-c2ccc(F)cc2)c1)c1ccc(SC2CC2)cc1 [Example 15, N-[(1R,2S)-1-(4-cyclopropylsulfanylphenyl)-1-[1-(4-fluorophenyl)indazol-5-yl]oxy-propan-2-yl]-2,2,2-trifluoro-acetamide] | 6.8
22 | C[C@H](NC(=O)CO)[C@H](Oc1ccc2c(cnn2-c2ccc(F)cc2)c1)c1ccccc1 [Example 16, N-[(1R,2S)-1-[1-(4-fluorophenyl)indazol-5-yl]oxy-1-phenyl-propan-2-yl]-2-hydroxy-acetamide] | 2.4
23 | C[C@H](NC(=O)CO)[C@H](Oc1ccc2c(cnn2-c2ccc(F)cc2)c1)c1ccc2ccccc2c1 [Example 21, N-[(1R,2S)-1-[1-(4-fluorophenyl)indazol-5-yl]oxy-1-naphthalen-2-yl-propan-2-yl]-2-hydroxy-acetamide] | 3.2
24 | CCc1cccc([C@@H](Oc2ccc3c(cnn3-c3ccc(F)cc3)c2)[C@H](C)NC(=O)C(F)(F)F)c1 [Example 22, N-[(1R,2S)-1-(3-ethylphenyl)-1-[1-(4-fluorophenyl)indazol-5-yl]oxy-propan-2-yl]-2,2,2-trifluoro-acetamide] | 4.7
25 | CCc1cccc([C@@H](Oc2ccc3c(cnn3-c3ccc(F)cc3)c2)[C@H](C)NC(=O)CO)c1 [Example 23, N-[(1R,2S)-1-(3-ethylphenyl)-1-[1-(4-fluorophenyl)indazol-5-yl]oxy-propan-2-yl]-2-hydroxy-acetamide] | 3.2
